In BindingDB's records for doi:10.1080/14756360109162352 (Universit&Agrave, 2001):

Biological target: T1, Neutrophil elastase (Homo sapiens, UniProt P08246)
T1 sequence (P08246 whole entry): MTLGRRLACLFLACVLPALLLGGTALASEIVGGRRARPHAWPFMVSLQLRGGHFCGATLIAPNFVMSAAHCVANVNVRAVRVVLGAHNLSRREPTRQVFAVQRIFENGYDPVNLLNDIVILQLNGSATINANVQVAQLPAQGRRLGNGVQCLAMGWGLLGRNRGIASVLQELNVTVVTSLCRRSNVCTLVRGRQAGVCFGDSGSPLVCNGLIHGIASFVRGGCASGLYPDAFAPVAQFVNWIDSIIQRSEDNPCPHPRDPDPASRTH
Assay: Enzyme Assay
Details: 25 °C
Method: The enzyme were assayed spectrophotometrically at 410nm with p-nitroanilide substrates at 25 C.

Row | Ki | Structure (SMILES)
1 | 94 µM | Cc1nn(-c2ccccc2)c2c1NOC(=O)N2 [Pyrazolooxadiazinone, 2a]
2 | 207 µM | Cc1nn(C)c2c1NOC(=O)N2 [Pyrazolooxadiazinone, 2b]
3 | 87 µM | Cc1nn(-c2ccc(Cl)cc2)c2c1NOC(=O)N2 [Pyrazolooxadiazinone, 2c]
4 | > 8400 µM | Cc1nn(-c2ccccc2[N+](=O)[O-])c2c1NOC(=O)N2 [Pyrazolooxadiazinone, 2g]
5 | > 8400 µM | Cc1nn(-c2cccc([N+](=O)[O-])c2)c2c1NOC(=O)N2 [Pyrazolooxadiazinone, 2h]
6 | 199 µM | CCc1nn(C)c2c1NOC(=O)N2 [Pyrazolooxadiazinone, 2j]
7 | 113 µM | CCCCc1nn(C)c2c1NOC(=O)N2 [Pyrazolooxadiazinone, 2l]
